Laboratory results as given in ChEMBL document CHEMBL1938252, “Structure-based optimization of morpholino-triazines as PI3K and mTOR inhibitors” (Bioorg Med Chem Lett, 2012).

What was measured:
[1] = target: Phosphatidylinositol 4,5-bisphosphate 3-kinase catalytic subunit alpha isoform (Homo sapiens, UniProt P42336); test: Inhibition of PI3Kalpha
[2] = target: T1, Serine/threonine-protein kinase mTOR (Homo sapiens, UniProt P42345); test: Inhibition of mTOR-mediated p70S6K phosphorylation at Thr389 in human PC3 cells; type: cell-based, PC-3
[3] = target: T1, Serine/threonine-protein kinase mTOR; test: Inhibition of mTOR
[4] = Selectivity ratio of IC50 for PI3Kaplha to IC50 for mTOR

Sequence of Phosphatidylinositol 4,5-bisphosphate 3-kinase catalytic subunit alpha isoform (P42336 whole entry, canonical isoform): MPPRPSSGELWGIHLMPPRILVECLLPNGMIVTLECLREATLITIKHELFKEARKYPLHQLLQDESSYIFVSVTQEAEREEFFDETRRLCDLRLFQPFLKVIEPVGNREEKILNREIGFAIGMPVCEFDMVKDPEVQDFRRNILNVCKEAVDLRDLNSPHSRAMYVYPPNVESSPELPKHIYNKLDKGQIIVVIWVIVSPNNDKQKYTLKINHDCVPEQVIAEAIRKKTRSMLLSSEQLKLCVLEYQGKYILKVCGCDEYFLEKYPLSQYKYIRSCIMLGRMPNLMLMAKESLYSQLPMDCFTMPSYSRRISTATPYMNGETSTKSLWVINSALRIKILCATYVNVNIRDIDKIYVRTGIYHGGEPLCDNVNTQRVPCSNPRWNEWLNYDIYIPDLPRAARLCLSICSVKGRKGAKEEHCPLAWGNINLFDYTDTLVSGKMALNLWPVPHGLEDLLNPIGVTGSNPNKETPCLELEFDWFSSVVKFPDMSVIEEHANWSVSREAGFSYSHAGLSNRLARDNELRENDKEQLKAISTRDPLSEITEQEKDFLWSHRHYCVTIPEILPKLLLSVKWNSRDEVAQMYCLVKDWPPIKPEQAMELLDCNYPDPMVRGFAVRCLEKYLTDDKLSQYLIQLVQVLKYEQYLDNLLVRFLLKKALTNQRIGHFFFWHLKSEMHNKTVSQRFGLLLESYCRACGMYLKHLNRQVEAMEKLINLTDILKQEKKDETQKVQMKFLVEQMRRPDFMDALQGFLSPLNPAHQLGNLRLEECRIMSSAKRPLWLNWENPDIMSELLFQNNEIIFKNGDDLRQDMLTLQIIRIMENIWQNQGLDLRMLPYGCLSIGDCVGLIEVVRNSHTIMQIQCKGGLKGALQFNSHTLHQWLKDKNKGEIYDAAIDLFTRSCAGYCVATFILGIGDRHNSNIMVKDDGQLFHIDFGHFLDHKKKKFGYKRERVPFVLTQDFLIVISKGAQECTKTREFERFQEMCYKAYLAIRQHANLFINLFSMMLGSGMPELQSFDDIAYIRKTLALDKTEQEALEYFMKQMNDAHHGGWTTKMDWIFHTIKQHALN

IC50 [1]	IC50 [2]	IC50 [3]	Ratio IC50 [4]	Compound
89 nM	96 nM	26 nM	3.4	CCc1nccn1-c1nc(-c2cccc3[nH]ccc23)nc(N2CCOCC2)n1
1100 nM	84 nM	18 nM	60	Cc1ccc(-c2nc(N3CCOCC3)nc(-n3ccnc3C)n2)c2cc[nH]c12

The remaining lines, values behind:

Compound	IC50 [1]	IC50 [2]	IC50 [3]	Ratio IC50 [4]
Clc1cccc(Nc2nc(N3CCOCC3)nc(-n3cccn3)n2)c1	2800 nM	–	570 nM	4.9
CCc1cc(C(F)(F)F)nn1-c1nc(-c2cccc3[nH]ccc23)nc(N2CCOCC2)n1	4050 nM	490 nM	71 nM	57
Cc1nccn1-c1nc(-c2cnc(N)nc2)nc(N2CCOCC2)n1	25 nM	–	420 nM	0.06
Cc1nccn1-c1nc(-c2cccc(O)c2)nc(N2CCOCC2)n1	53 nM	–	95 nM	0.6
FC(F)c1nc2ccccc2n1-c1nc(N2CCOCC2)nc(N2CCOCC2)n1 [ZSTK-474]	–	–	350 nM	–
